Source: US10112978B2, “Peptide and use thereof” (OSAKA UNIVERSITY, priority 2014, dated 2018)
“Also recorded” adds a separate entry of the source.

Assays:
THP-1 cells = test: CD86 and CD54 expression in THP-1 cells (flow cytometry, RFI); assay type: cell-based, human; settings: overnight culture, relative fluorescence intensity
Description: THP-1 cells were seeded at a density of 2.0×10^5 cells/mL in 50 mL of RPMI1640 medium containing 10% FBS and 0.05 mM mercaptoethanol in a 75-cm^2 flask, and precultured for 48 hours.
The precultured THP-1 cells were harvested by centrifugation and suspended at 2.0×10^6 cells/mL in RPMI1640 medium containing 10% FBS and 0.05 mM mercaptoethanol, and the cell suspension was added to a 24-well plate at 500 μL/well. Test peptides were separately dissolved in the same medium as above, and 500 μL of each of the solutions was added to separate wells containing the cell suspension.
After overnight culture, the cells were harvested by centrifugation and washed twice with PBS containing 0.1% BSA (FACS buffer). The cells were then dispersed in 600 μL of FACS buffer containing 0.01% human γ-globulin solution (Sigma, G2388), and incubated at 4° C. for 10 minutes for blocking of Fc receptors.
After that, the cell suspension was divided into three 180-μL aliquots in 1.5-mL tubes, the tubes were centrifuged, and the cell pellets were prepared for the reaction with antibodies. To the cell pellets, FITC-labeled antibody solutions separately diluted to appropriate concentrations in FACS buffer were added in a volume of 50 μL, and incubation was performed at 4° C. for 30 minutes. The antibodies used were CD86 antibody (Pharmingen; Cat#555657), CD54 antibody (Dako; Cat# F7143) and isotype control (Mouse IgG) antibody (Dako; Cat#X0927). After the 30-minute incubation, the cells were harvested by centrifugation and washed twice with FACS buffer. The cells harvested by centrifugation were dispersed in 200 μL of FACS buffer containing 0.625 μg/mL propidium iodide, and the expression levels of the cell surface antigens on 1×10^4 viable cells were measured by flow cytometry. Forward and side scatter gating was not used for the analysis, and the relative fluorescence intensity (RFI) was calculated from the measured mean fluorescence intensities (MFI) by the following formula. […]
When the viability of the non-treated control cells (vehicle treatment cells) was 90% or more, the test was considered valid. In the case where the cell viability at a particular sample concentration used in the test was lower than 50%, the data of the CD54 level at the concentration was excluded from the evaluation.

inflammasomes [1] = test: Inflammasome activation: IL-1β production in THP-1 cells with or without LPS priming, cathepsin B inhibitor or caspase-1 inhibitor; assay type: cell-based, human
Description: THP-1 cells were suspended at 1×10^6 cells/mL in RPMI1640 medium containing 1 μg/mL LPS and 10% FBS, and incubated in a CO2 incubator for 3 hours for cell priming. The cell suspension was centrifugated, the cells were resuspended at 1×10^6 cells/mL in RPMI1640 medium containing 10% FBS, and the cell suspension was added to a 96-well plate at 100 μL/well. The cathepsin B inhibitor Ca-074-Me (final concentration: 10 μM), the caspase-1 inhibitor Z-YVAD-FMK (final concentration: 10 μM) or the medium was added to the wells. After that, OSK-1 or the medium was added to the wells, and the cells were cultured in a CO2 incubator. After 16 hours, the culture supernatant was harvested, and the cytokine concentrations in the supernatant were measured by ELISA.

inflammasomes [2] = test: Inflammasome activation: IL-1β and TNFα production in NLRP3-knockdown and control siRNA THP-1 cells; assay type: cell-based, human; settings: OSK-1 10 μg/mL, 16 hours
Description: THP-1 cells were transfected with a siRNA against the inflammasome component NLRP3 (NOD-like receptor family, pyrin domain containing 3) (final concentration: 100 nM, Hs_CIAS 1_6 and Hs_CIAS 1_9, manufactured by QIAGEN) or a control siRNA using a transfection reagent (6 μL/well, HiPerFect Transfection Reagent, manufactured by QIAGEN). After overnight culture, the expression level of NLRP3 was determined by western blotting.
Each type of the THP-1 cells was suspended at 1×10^6 cells/mL in RPMI1640 medium containing 1 μg/mL LPS and 10% FBS, and incubated in a CO2 incubator for 3 hours for cell priming. The cell suspension was centrifugated, the cells were resuspended at 1×10^6 cells/mL in RPMI1640 medium containing 10% FBS, and the cell suspension was added to a 24-well plate at 500 μL/well. An OSK-1 solution was prepared at a 2-fold higher concentration than the final concentration in RPMI1640 medium containing 10% FBS and added to the plate at 500 μL/well. After 16 hours, the culture supernatant was harvested, and the IL-1β and TNFα concentrations in the supernatant were measured by ELISA.

beagles = test: Adjuvant effect in dogs (anti-Ang II antibody titer after Ang II-KLH vaccine); assay type: in vivo; settings: Ang II-KLH 25 μg/animal + OSK-1 500 μg/animal intracutaneously twice at a 2-week interval
Description: The adjuvant effect of OSK-1 was compared with that of the conventional Freund's adjuvant in dogs. Ang II-KLH (angiotensin II-keyhole limpet hemocyanin) as a vaccine (25 μg/animal) and OSK-1 (500 μg/animal) or Freund's adjuvant (250 μL/animal) as an adjuvant were intracutaneously administered to beagles twice at a 2-week interval (2 animals per group). For the Freund's adjuvant group, complete Freund's adjuvant was used at the first administration, and incomplete Freund's adjuvant was used at the second administration. Blood was drawn before the first administration and 2 and 4 weeks after the first administration, and the anti-Ang II antibody titer was measured.
The serum separated from the blood was serially diluted in 5% skim milk/PBS, and the diluted sera were added to an Ang II-BSA-coated 96-well ELISA plate. The plate was allowed to stand at 4° C. overnight. The wells were washed with PBS-T, an HRP-labeled anti-mouse IgG antibody diluted in 5% skim milk/PBS was added to the wells. The plate was incubated with agitation at room temperature for 3 hours. The wells were washed with PBS-T, and a TMB solution was added to the wells. The plate was allowed to stand under protection from light for 30 minutes, and 0.5 N H2SO4 was added to the wells to stop the reaction. The absorbance at 450 nm was measured and used for antibody titer comparison.

[3] = test system: LPS-primed RAW 264.7 cells; test: Cytokine production in LPS-primed RAW 264.7 cells (ELISA); assay type: cell-based, mouse; settings: about 16 hours
Description: RAW 264.7 cells were suspended at 1×10^6 cells/mL in DMEM medium containing 50 ng/mL LPS and 10% FBS, and incubated in a CO2 incubator for 3 hours for cell priming. The cell suspension was centrifugated, the cells were resuspended at 1×10^6 cells/mL in DMEM medium containing 10% FBS, and the cell suspension was added to a 24-well plate at 500 μL/well. An OSK-1 solution was prepared at a 2-fold higher concentration than the final concentration in DMEM medium containing 10% FBS and added to the plate at 500 μL/well. After about 16 hours, the culture supernatant was harvested, and the cytokine concentrations in the supernatant were measured by ELISA.

For “ELKLIFLHRLKRLRKRLKRK (Ac-ELKLIFLHRLKRLRKRLKRK-NH2) [OSK-1]”, the “expression of CD54” value (THP-1 cells) was “strongly induced; also recorded: comparable or superior to that of muramyl dipeptide (MDP); also recorded: more highly active for inducing CD54 expression than SR-07 and SR-08”, the “expression of CD86” value (THP-1 cells) was “strongly induced; also recorded: comparable or superior to that of muramyl dipeptide (MDP)” and the IL-1β production (inflammasomes [1]; LPS-primed THP-1 cells versus non-primed THP-1 cells, 16 hours) was “induced the production of IL-1β only in the LPS-primed THP-1 cells”. The IL-1β production (inflammasomes [1]; LPS-primed THP-1 cells, in the presence of caspase-1 inhibitor Z-YVAD-FMK 10 μM) was “also inhibited by Z-YVAD-FMK”, the IL-1β production (inflammasomes [1]; LPS-primed THP-1 cells, in the presence of cathepsin B inhibitor Ca-074-Me 10 μM) was “inhibited by Ca-074-Me” and the “production of IL-1β” value (inflammasomes [2]; LPS-primed NLRP3-knockdown THP-1 cells) was “the induction of IL-1β production by OSK-1 was inhibited”. For the same sequence, the “production of TNFα” value (inflammasomes [2]; NLRP3-knockdown and control siRNA THP-1 cells) was “induced by OSK-1 regardless of whether NLRP3 expression was knocked down or not”, the “anti-Ang II antibody titer” value (beagles) was “increase in the anti-Ang II antibody titer was observed” and the “production of the cytokines (IL-1β, IL-18, TNFα and IL-6)” value [3] was “induced the production of the cytokines in the LPS-primed RAW 264.7 cells in an OSK-1 concentration dependent manner”.
